From patent publication US10112918B2, “15-oxospiramilactone derivatives, preparation method and uses thereof” (Kunming Institute of Botany, The Chinese Academy of Sciences, priority 2013, dated 2018)
Where two headings read alike, the source gives them in different places.

Tests used:
Assay type in all cases: cell-based
[1] = test system: SMMC-7721 (human hepatoma cells); experiment: MTT inhibition of tumor cell growth, SMMC-7721; conditions: Homo sapiens, SMMC-7721, 48 h
How it was run: (§1)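 Compound exposure lasts 48 h at 37° C on cells plated at 5000-10000 per well in serum-containing medium. Viability is read by MTT reduction at 595 nm, and IC50 is computed with the two-point Reed and Muench method.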

[2] = test system: MCF-7 (human breast cancer cells); experiment: MTT inhibition of tumor cell growth, MCF-7; conditions: Homo sapiens, MCF7, 48 h
How it was run: as §1

[3] = test system: HL-60 (human promyelocytic leukemia cells); experiment: MTT inhibition of tumor cell growth, HL-60; conditions: Homo sapiens, HL-60, 48 h
How it was run: as §1

[4] = test system: A-549 (Human lung adenocarcinoma cells); experiment: MTT inhibition of tumor cell growth, A-549; conditions: Homo sapiens, A549, 48 h
How it was run: as §1

[5] = test system: SW-480 (human colon cancer cells); experiment: MTT inhibition of tumor cell growth, SW-480; conditions: Homo sapiens, SW480, 48 h
How it was run: as §1

[6] = test system: Wnt signaling pathway (Top-Flash reporter gene); experiment: Top-Flash Wnt reporter gene assay in HEK293T cells with Wnt3a conditioned medium; conditions: Homo sapiens, HEK-293T, 6 h, HEK293T, Wnt3a conditioned medium, 6 h
How it was run: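 HEK293T transfected with TOP-flash (5 ng/well) plus GFP plasmid for normalization, then treated 6 h with mouse Wnt3a conditioned medium from L cells, with or without compound. GFP-normalized luciferase minus DMSO-only background, scaled to Wnt-induced activity; IC50 at 0.5 relative residual activity from 4-parameter logistic fit.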

[7] = Table 2, derivatives having potential Michael reaction acceptor
[8] = Table 3, single Michael reaction acceptor, modified lactonic ring
[9] = Table 2, derivatives having potential Michael reaction acceptor, read-out: IC50 SW-480
[10] = Table 3, single Michael reaction acceptor, modified lactonic ring, read-out: IC50 SW-480
[11] = Table 6, 7-carbonyl derivatives, read-out: IC50 SW-480, 7-carbonyl derivatives
[12] = Table 8, read-out: IC50 (μM), inhibitory activity on the Wnt signaling pathway
[13] = Table 1, 7-hydroxy derivatives of S-3
[14] = Table 1, 7-hydroxy derivatives of S-3, read-out: IC50 SW-480
[15] = Table 7 (second), derivatives modified on 7-hydroxyl of S-3, read-out: IC50 (μM), inhibitory activity on the Wnt signaling pathway
[16] = Table 4, derivatives obtained by reduction of the lactonic ring
[17] = Table 4, derivatives obtained by reduction of the lactonic ring, read-out: IC50 SW-480
[18] = Table 5, derivatives having double Michael reaction acceptor
[19] = Table 5, derivatives having double Michael reaction acceptor, read-out: IC50 SW-480
[20] = Table 6, double Michael reaction acceptor derivatives, read-out: IC50 SW-480, derivatives having double Michael reaction acceptor
[21] = Table 9, read-out: IC50(μM), inhibitory activity on the Wnt signaling pathway

Q: How did the IC50 [1, 7] turn out when `C=C1C(=O)[C@]23CC[C@H]1CC2[C@@]12CCC[C@@](C)(COC1)C2CC3=O` (stereo partly shown) [Compound 28] was run?
A: The IC50 was 4.62 µM.

Q: What about the IC50 [1, 8] of the same compound?
A: Its IC50 is 4.62 µM.

Q: And the IC50 [2, 7]?
A: Its IC50 is 2.85 µM.

Q: What about the IC50 [2, 8] of the same compound?
A: The IC50 was 2.85 µM.

Q: And the IC50 [3, 7]?
A: The IC50 was 4.9 µM.

Q: What about the IC50 [3, 8] of the same compound?
A: Its IC50 is 4.9 µM.

Q: And the IC50 [4, 7]?
A: The IC50 was 2.97 µM.

Q: What about the IC50 [4, 8] of the same compound?
A: Its IC50 is 2.97 µM.

Q: And the IC50 [5, 9]?
A: The IC50 was 2.37 µM.

Q: And the IC50 [5, 10]?
A: Its IC50 is 2.37 µM.

Q: And the IC50 [5, 11]?
A: The IC50 was 2.06 µM.

Q: What about the IC50 [6, 12] of the same compound?
A: Its IC50 is 9.12 ± 0.21 µM.

Q: What does the source list for `C=C1C(=O)C23CC[C@H]1CC2[C@@]12CCC[C@@](C)(COC1=O)C2C[C@H]3OC(=O)c1ccc(C(F)(F)F)cc1` (stereo partly shown) [Compound 1m]?
A: IC50 [1, 13]: 2.65 µM; IC50 [2, 13]: 1.97 µM; IC50 [3, 13]: 0.89 µM; IC50 [4, 13]: 1.73 µM; IC50 [5, 14]: 2.19 µM; IC50 [6, 15]: 19 ± 1.61 µM

Q: What does the source list for `C=C1C(=O)C23CC[C@H]1CC2[C@]1(COCC#N)CCC[C@@](C)(COC(=O)c2cccs2)C1CC3=O` (stereo partly shown) [Compound 55]?
A: IC50 [1, 16]: 1.06 µM; IC50 [2, 16]: 0.65 µM; IC50 [3, 16]: 0.62 µM; IC50 [4, 16]: 1.17 µM; IC50 [5, 17]: 0.8 µM; IC50 ([6]; Table 10, read-out: IC50 (μM), inhibitory activity on the Wnt signaling pathway): 12.1 ± 1.25 µM

Q: With `C=C1C(=O)C23CC[C@H]1CC2[C@]1(COC(C)=O)CCC[C@@](C)(COC(=O)c2cccs2)C1CC3=O` (stereo partly shown) [Compound 66] as the compound, how does the IC50 [1, 16] read?
A: Its IC50 is 0.57 µM.

Q: And the IC50 [2, 16]?
A: The IC50 was 0.89 µM.

Q: And the IC50 [3, 16]?
A: Its IC50 is 0.71 µM.

Q: And the IC50 [4, 16]?
A: Its IC50 is 0.8 µM.

Q: What about the IC50 [5, 17] of the same compound?
A: Its IC50 is 0.76 µM.

Q: And the IC50 [5, 11]?
A: The IC50 was 0.7 µM.

Q: What about the IC50 [6, 12] of the same compound?
A: Its IC50 is 8.39 ± 0.63 µM.

Q: Which results are given for `C=C1C(=O)C23CC[C@@H](CC2[C@]2(COC(=O)c4cccs4)CCC[C@@](C)(COC(=O)c4cccs4)C12)C(=C)C3=O` (stereo partly shown) [Compound 65]?
A: IC50 [1, 18]: 0.22 µM; IC50 [2, 18]: 0.33 µM; IC50 [3, 18]: 0.29 µM; IC50 [4, 18]: 0.35 µM; IC50 [5, 19]: 0.16 µM; IC50 [5, 20]: 0.26 µM; IC50 [6, 21]: 7.68 ± 0.19 µM

Q: With `C=C1C(=O)C23CC[C@@H](CC2[C@]2(COC(C)=O)CCC[C@@](C)(COC(C)=O)C12)C(=C)C3=O` (stereo partly shown) [Compound 53] as the compound, how does the IC50 [1, 18] read?
A: The IC50 was 0.75 µM.

Q: What about the IC50 [2, 18] of the same compound?
A: The IC50 was 0.65 µM.

Q: And the IC50 [3, 18]?
A: Its IC50 is 1.21 µM.

Q: What about the IC50 [4, 18] of the same compound?
A: Its IC50 is 0.64 µM.

Q: And the IC50 [5, 19]?
A: Its IC50 is 0.78 µM.

Q: And the IC50 [5, 20]?
A: Its IC50 is 0.78 µM.

Q: And the IC50 [6, 21]?
A: The IC50 was 7.3 µM.

Q: Which results are given for `C=C1C(=O)[C@]23CC[C@H]1CC2[C@@]12CCC[C@@](C)(COC1=O)C2[C@H](CN1CCOCC1)C3=O` (stereo partly shown) [Compound 9]?
A: IC50 [1, 7]: 3.53 µM; IC50 [2, 7]: 3.55 µM; IC50 [3, 7]: 4.43 µM; IC50 [4, 7]: 2.8 µM; IC50 [5, 9]: 7.77 µM; IC50 [6, 21]: 8.56 ± 1.15 µM

Q: For `C=C1C(=O)[C@]23CC[C@H]1CC2[C@@]12CCC[C@@](C)(COC1=O)C2[C@H](Br)C3=O` (stereo partly shown) [Compound 13], which IC50 [1, 7] is on record?
A: Its IC50 is 0.83 µM.

Q: And the IC50 [2, 7]?
A: Its IC50 is 1.51 µM.

Q: What about the IC50 [3, 7] of the same compound?
A: The IC50 was 3.86 µM.

Q: What about the IC50 [4, 7] of the same compound?
A: Its IC50 is 0.73 µM.

Q: And the IC50 [5, 9]?
A: Its IC50 is 1.21 µM.

Q: What about the IC50 [6, 21] of the same compound?
A: Its IC50 is 16.5 ± 1.16 µM.

Q: `C=C1C(=O)C23CC[C@H]1CC2[C@@]12CCC[C@@](C)(COC1=O)C2C[C@H]3OC(=O)C(F)(F)F` (stereo partly shown) [Compound 1f] was tested. Which IC50 [1, 13] did it give?
A: Its IC50 is 13 µM.

Q: What about the IC50 [2, 13] of the same compound?
A: The IC50 was 2.74 µM.

Q: And the IC50 [3, 13]?
A: Its IC50 is 5.72 µM.

Q: What about the IC50 [4, 13] of the same compound?
A: The IC50 was 6.08 µM.

Q: And the IC50 [5, 14]?
A: Its IC50 is 7.81 µM.

Q: What about the IC50 [6, 15] of the same compound?
A: The IC50 was 20.2 ± 2.59 µM.

Q: How did the IC50 [1, 7] turn out when `C=C1C(=O)C23CC[C@H]1CC2[C@]1(COC(C)=O)CCC[C@@](C)(COC(C)=O)C1[C@H](COC(C)=O)C3=O` (stereo partly shown) [Compound 52] was run?
A: The IC50 was 15.4 µM.

Q: What about the IC50 [2, 7] of the same compound?
A: The IC50 was 15.1 µM.

Q: What about the IC50 [3, 7] of the same compound?
A: The IC50 was 6.33 µM.

Q: What about the IC50 [4, 7] of the same compound?
A: Its IC50 is 11.1 µM.

Q: And the IC50 [5, 9]?
A: The IC50 was 12.9 µM.

Q: What about the IC50 [6, 21] of the same compound?
A: The IC50 was over 60 µM.

Q: For `C=C1C(=O)C23CC[C@H]1CC2[C@]1(COC(C)=O)CCC[C@@](C)(COC(C)=O)C1[C@H](CO)C3=O` (stereo partly shown) [Compound 48], which IC50 [1, 7] is on record?
A: Its IC50 is 6.13 µM.

Q: And the IC50 [2, 7]?
A: Its IC50 is 2.93 µM.

Q: What about the IC50 [3, 7] of the same compound?
A: The IC50 was 5.03 µM.

Q: What about the IC50 [4, 7] of the same compound?
A: The IC50 was 3.04 µM.

Q: What about the IC50 [5, 9] of the same compound?
A: Its IC50 is 3.94 µM.

Q: What about the IC50 [6, 21] of the same compound?
A: Its IC50 is 46.9 ± 1.26 µM.

Q: `C=C1C(=O)[C@]23CC[C@H]1CC2[C@@]12CCC[C@@](C)(CO[C@H]1OC)C2CC3=O` (stereo partly shown) [Compound 22] was tested. Which IC50 [1, 8] did it give?
A: Its IC50 is 0.51 µM.

Q: And the IC50 [2, 8]?
A: The IC50 was 1.57 µM.

Q: What about the IC50 [3, 8] of the same compound?
A: Its IC50 is 1.46 µM.

Q: And the IC50 [4, 8]?
A: The IC50 was 0.67 µM.

Q: And the IC50 [5, 10]?
A: The IC50 was 2.2 µM.

Q: And the IC50 [5, 11]?
A: The IC50 was 2.56 µM.

Q: What about the IC50 [6, 12] of the same compound?
A: Its IC50 is 17.6 ± 1.9 µM.
